Assay results published in the NIST ThermoML archive (doi:10.1016/j.tca.2004.08.001).

Tests used:
[1] = refractive index (Na D-line) (dimensionless); xn = mol fraction of the nth substance listed; settings: 303.15 K, 101.3 kPa, Liquid, Standard Abbe refractometry
[2] = xn = mol fraction of the nth substance listed; settings: 303.15 K, 101.3 kPa, Liquid; for speed of sound: Linear variable-path acoustic interferometer
[3] = 101.33 kPa, Liquid; for speed of sound: Linear variable-path acoustic interferometer
[4] = refractive index (Na D-line) (dimensionless); settings: 101.33 kPa, Liquid, Standard Abbe refractometry

CCCCCCBr [1-bromohexane] + C1CCOC1
Settings | mass density, [2] [kg/m3] | refractive index, [1] | speed of sound, [2] [m/s] | viscosity, [2] [mPa·s]
x2 = 0.0976 | 1146.32 | 1.442 | 1087 | 0.8602
x2 = 0.3008 | 1107.3 | 1.4368 | 1119 | 0.7753
x2 = 0.4975 | 1061.2 | 1.4307 | 1154 | 0.6995
x2 = 0.696 | 1002.92 | 1.4223 | 1194 | 0.6258
x2 = 0.9 | 924.62 | 1.4105 | 1235 | 0.5054

ClC(Cl)C(Cl)Cl [1,1,2,2-tetrachloroethane] + C1CCOC1
Settings | mass density, [2] [kg/m3] | refractive index, [1] | speed of sound, [2] [m/s] | viscosity, [2] [mPa·s]
x2 = 0.1023 | 1523.21 | 1.483 | 1138 | 1.389
x2 = 0.2128 | 1460.02 | 1.476 | 1143 | 1.307
x2 = 0.3093 | 1401.59 | 1.4701 | 1149 | 1.227
x2 = 0.4056 | 1340.18 | 1.4639 | 1157 | 1.136
x2 = 0.5093 | 1270.31 | 1.4556 | 1168 | 1.029
x2 = 0.6032 | 1203.28 | 1.4472 | 1180 | 0.9116
x2 = 0.7046 | 1126.91 | 1.4368 | 1195 | 0.786
x2 = 0.8008 | 1050.12 | 1.4268 | 1212 | 0.6647
x2 = 0.8973 | 968.58 | 1.416 | 1231 | 0.5519

C1CCOC1 [tetrahydrofuran]
303.15 K
Settings | mass density [kg/m3] | refractive index | speed of sound [m/s] | viscosity [mPa·s]
[3] | 876.7 | – | 1255 | 0.4383
[4] | – | 1.4028 | – | –

CCCCCCCl [1-chlorohexane] + C1CCOC1
Settings | mass density, [2] [kg/m3] | refractive index, [1] | speed of sound, [2] [m/s] | viscosity, [2] [mPa·s]
x2 = 0.1039 | 869.11 | 1.4161 | 1195 | 0.6407
x2 = 0.305 | 870.03 | 1.4142 | 1216 | 0.6046
x2 = 0.5025 | 871.36 | 1.4122 | 1233 | 0.5698
x2 = 0.7336 | 873.79 | 1.4088 | 1247 | 0.5114
x2 = 0.9013 | 875.66 | 1.4053 | 1252 | 0.4711

COC(C)=O [methyl ethanoate]
303.15 K
Settings | mass density [kg/m3] | refractive index | speed of sound [m/s] | viscosity [mPa·s]
[3] | 920.83 | – | 1136 | 0.343
[4] | – | 1.3567 | – | –

ClC(Cl)Cl [trichloromethane]
303.15 K
Settings | mass density [kg/m3] | refractive index | speed of sound [m/s] | viscosity [mPa·s]
[3] | 1470.59 | – | 967 | 0.51
[4] | – | 1.441 | – | –

ClC(Cl)C(Cl)Cl [1,1,2,2-tetrachloroethane]
303.15 K
Settings | mass density [kg/m3] | refractive index | speed of sound [m/s] | viscosity [mPa·s]
[3] | 1578.6 | – | 1135 | 1.457
[4] | – | 1.4881 | – | –

C1CCOC1 [tetrahydrofuran] + CCOC(C)=O
Settings | mass density, [2] [kg/m3] | refractive index, [1] | speed of sound, [2] [m/s] | viscosity, [2] [mPa·s]
x1 = 0.0995 | 887.39 | 1.3707 | 1129 | 0.4078
x1 = 0.2035 | 886.11 | 1.375 | 1141 | 0.4082
x1 = 0.3016 | 884.98 | 1.3785 | 1153 | 0.4085
x1 = 0.3923 | 883.95 | 1.3821 | 1165 | 0.4091
x1 = 0.4868 | 882.82 | 1.3858 | 1177 | 0.4111
x1 = 0.5955 | 881.45 | 1.3892 | 1192 | 0.4147
x1 = 0.6973 | 880.21 | 1.3921 | 1206 | 0.4184
x1 = 0.812 | 878.89 | 1.3964 | 1224 | 0.4236
x1 = 0.9 | 877.84 | 1.3995 | 1238 | 0.4287

CCCCCCBr [1-bromohexane]
Settings | mass density, [3] [kg/m3] | refractive index, [4] | speed of sound, [3] [m/s] | viscosity, [3] [mPa·s]
298.15 K | 1169.62 | 1.4464 | – | –
303.15 K | 1162.67 | 1.4441 | 1075 | 0.903
